Laboratory results: PMC3497018, “Anti-Human Rhinoviral Activity of Polybromocatechol Compounds Isolated from the Rhodophyta, Neorhodomela aculeata” (Marine Drugs, 2012)
In brackets after ≈: the same amount, converted by molar mass. Read-outs that look alike come from different tables or passages of the source.

How the values were obtained:
[1] = test system: HRV3; test: Antiviral activity, SRB method using CPE reduction, HRV3-infected HeLa cells; format: cell-based, human rhinovirus; conditions: for antiviral activity against HRV3 (in words): HeLa cells; for IC50: Human rhinovirus sp., HRV3, HeLa, HRV3 in HeLa cells, mean ± S.D., ND = maximum inhibition rate under 50%, read-out: IC50, concentration required to inhibit virus-induced cytopathic effect (CPE) by 50%
Procedure: (§1) HRV 2 and 3 were provided by the ATCC (American Type Culture Collection, Manassas, VA, USA) and were propagated in human epitheloid carcinoma cervix (HeLa) cells at 32 °C. HeLa cells were maintained in minimal essential medium (MEM) supplemented with 10% fetal bovine serum (FBS) and 0.01% antibiotic-antimycotic.
(§2) Assays of antiviral activity and cytotoxicity were evaluated by the SRB method using CPE reduction, recently reported. […] Next day, medium was removed and then washed with 1× phosphate buffered saline (PBS). Infectivity of virus stock was determined by the SRB method using cytopathic effect (CPE) reduction and was determined as infectivity of the virus by SRB ID50 (50% infective dose). […] The antiviral activity of each test material was determined with a 10-fold diluted concentration ranging from 0.1 to 100 μg/mL. Three wells were used as virus controls (virus-infected non-drug-treated cells) while three wells were used as cell controls (non-infected non-drug-treated cells). The culture plates were incubated at 37 °C in 5% CO2 for 2 days. After washing 1 times with 1× PBS, 100 μL of cold (−20 °C) 70% acetone were added to each well and left for 30 min at −20 °C. 70% acetone was removed and 96-well plates were left at dry oven for 30 min. 100 μL of 0.4% (w/v) SRB in 1% acetic acid solution were added to each well and left at room temperature for 30 min. Unbound SRB was removed and the plates were washed 5 times with 1% acetic acid before oven drying and were then left in a dry oven for 1 day. Bound SRB was solubilized with 100 μL of 10 mM unbuffered tris-base solution and plates were left on a table for 30 min. The absorbance was read at 540 nm by using a VERSAmax microplate reader (Molecular Devices, Palo Alto, CA, USA) with a reference absorbance at 620 nm. To calculate the IC50 values, the results were transformed to percentage of controls and the IC50 values were graphically obtained from the dose-response curves. The percent protection achieved by the test compound in HRV2 or HRV3-infected cells was calculated by the following formula: […]
(§3) where (ODt)virus is the optical density measured with a given concentration of the test compound in virus-infected cells; (ODc)virus is the optical density measured for the control untreated virus-infected cells; and (ODc)mock is the optical density measured for control untreated mock-infected cells. The concentration achieving 50% protection according to the formula above was defined as the 50% inhibitory concentration (IC50). The therapeutic index was defined as CC50/IC50. […] Next day, medium was removed and the 96-well plates were replaced with media containing the serially diluted compounds and the cells were further incubated for 48 h. The culture medium was removed and washed with 1× PBS. The next step was conducted by antiviral activity assay above described. To calculate the CC50 values, the results were transformed to percentage of controls and the CC50 values were graphically obtained from the dose-response curves. Ribavirin was used as positive, and dimethyl sulfoxide (DMSO) was used as negative control.

[2] = test system: HRV2; test: Antiviral activity, SRB method using CPE reduction, HRV2-infected HeLa cells; format: cell-based, human rhinovirus; conditions: for antiviral activity against HRV2 (in words): HeLa cells; for IC50: Human rhinovirus sp., HRV2, HeLa, HRV2 in HeLa cells, mean ± S.D., read-out: IC50, concentration required to inhibit virus-induced cytopathic effect (CPE) by 50%; for TI, therapeutic index = CC50/IC50: HRV2
Procedure: as §1, §2, §3

[3] = test system: HRV2; test: Microscopic observation of HRV2-induced CPE in HeLa cells; format: cell-based, human rhinovirus; conditions: HRV2-infected HeLa cells, 20 μg/mL, 32 °C, 2 days
Procedure: (§4) After a 2-day infection of HeLa cells with HRV2 and HRV3, the effect of compound 1 and compound 3 on HRV-induced cytopathic effect (CPE) investigated.
(§5) Figure 3 The effect of compound 1 or compound 3 on HRV2 (left group; I) and HRV 3 (right group; II)-induced CPE. The virus-infected cells were treated with compound 1 or compound 3 of 20 μg/mL. After incubation at 32 °C in 5% of CO2 for 2 days, the cell morphology was photographed under a microscope.
(§6) Briefly, HeLa cells were seeded onto a 96-well culture plate at a concentration of 2 × 10^4 cells per well. The next day, the medium was removed and washed with PBS. Then, 0.09 mL of diluted virus suspension and 0.01 mL of medium supplemented with 20 mM MgCl2 containing compound 1 or compound 3 of 20 μg/mL were added. After incubation at 32 °C in 5% CO2 for 2 days, the morphology of cells was observed under microscope of 32 × 10 magnifications (St Ernst-Leitz, Wetzlar, Germany), and images were recorded.

[4] = Cytotoxicity, SRB method, non-infected HeLa cells, 48 h; format: cell-based, human; conditions: human, non-infected HeLa cells, Table 4, read-out: CC50, concentration required to reduce cell growth by 50%
Procedure: as §2, §3

[5] = test system: HRV3; test: Microscopic observation of HRV3-induced CPE in HeLa cells; format: cell-based, human rhinovirus; conditions: HRV3-infected HeLa cells, 20 μg/mL, 32 °C, 2 days
Procedure: as §4, §5, §6

[6] = test system: HeLa cells; test: Cytotoxicity, SRB method, non-infected HeLa cells, 48 h; format: cell-based, human; conditions: Table 2, column under HRV3
Procedure: as §2, §3

SMILES	antiviral activity against HRV3 (in words) [1]	antiviral activity against HRV2 (in words) [2]	effect on HRV2-induced visible CPE [3]	CC50 at 48 h [4] [µg/mL]	IC50 ([2]; Table 4) [µg/mL]	other results
COCc1cc(Br)c(O)c(O)c1Br [Compound 5, 2,5-Dibromo-3,4-dihydroxy-benzyl methyl ether]	no antiviral effect	no antiviral effect				
COCc1cc(O)c(O)c(Br)c1Cc1cc(O)c(O)c(Br)c1Br [Compound 3, 2,2′,3-Tribromo-3′,4,4′,5-tetrahydroxy-6′-methoxymethyldiphenylmethane]			inhibited the formation of a visible CPE	> 20	7.11 ± 0.64 (≈ 13.9 µM)	IC50 ([1]; Table 4): 4.69 ± 0.44 µg/mL (≈ 9.14 µM); TI, therapeutic index = CC50/IC50 ([1]; Table 4, HRV3): 4.26; TI, therapeutic index = CC50/IC50 ([2]; Table 4): 2.81; effect on HRV3-induced visible CPE [5]: inhibited the formation of a visible CPE
COCc1cc(O)c(O)c(Br)c1Br [Compound 4, 2,3-Dibromo-4,5-dihydroxybenzyl methyl ether]	no antiviral effect	no antiviral effect				
OCc1cc(O)c(O)c(Br)c1Br [Compound 1, 2,3-Dibromo-4,5-dihydroxybenzyl alcohol]	did not show anti-HRV3 activity		inhibited the formation of a visible CPE	> 20	2.5 ± 0.66 (≈ 8.39 µM)	TI, therapeutic index = CC50/IC50 ([2]; Table 4): 8.00
O=Cc1cc(O)c(O)c(Br)c1Br [Compound 2, 2,3-Dibromo-4,5-dihydroxybenzaldehyde]	no antiviral effect	no antiviral effect				
Oc1cc(Cc2cc(O)c(O)c(Br)c2Br)c(Br)c(Br)c1O [Compound 6, 2,2′,3,3′-Tetrabromo-4,4′,5,5′-tetrahydroxydiphenylmethane]	no antiviral effect	no antiviral effect				
NC(=O)c1ncn([C@@H]2O[C@H](CO)[C@@H](O)[C@H]2O)n1 [Ribavirin, reference compound]			prevented a CPE	> 20	2.15 ± 0.51 (≈ 8.8 µM)	IC50 ([1]; Table 2): 14.2 ± 2.2 µg/mL (≈ 58.4 µM); IC50 ([1]; Table 4): 5.09 ± 0.6 µg/mL (≈ 20.8 µM); CC50, concentration required to reduce cell growth by 50% [6]: >20 µg/mL; IC50 ([2]; Table 2, ND = maximum inhibition rate under 50%): 17.1 ± 1.48 µg/mL (≈ 70.2 µM); effect on HRV3-induced visible CPE [5]: prevented a CPE
